Like-named read-outs stand apart in the source and are kept apart here.
Key:
[1] = system: human engineered heart tissue (hEHT); details: for Threshold concentration at which the compound significantly decreased relaxation velocity / Threshold concentration inducing irregular beating patterns (RR-scatter): human, 30 min
Procedure: Calcium-concentration response curves were established in DMEM, 1% penicillin/streptomycin, 10 mM HEPES, and 100 µM acetylcysteine with calcium concentrations adjusted to the desired final concentration (0.2–3.0 mmol/L). Equilibration time was 20 minutes. Measurements were performed under spontaneous activity by automated video-optical recording and analysis (customized software, Consulting Team Machine Vision) as previously described. Contractile force F was calculated from the degree of post deflection δ (µm), silicone post length (L) and radius (R) and elastic modulus (E) by the formula F = 3πER^4δ/4L^3 [29]. Contraction- and relaxation velocities were calculated as the average maximal steepness of twitch contraction or relaxation, respectively. Each value represents the mean of all measurable contraction twitches in the recording period of 60 seconds per hEHT.
EHTs were equilibrated in DMEM, 1% penicillin/streptomycin, 10 mM HEPES, 100 µM acetylcysteine for one hour. […] Isoprenaline and carbachol were used at 100 nM and 10 µM, respectively.
Intervals between two contractions were determined for all recordings. […] Interval scatter was therefore defined as the length between 10th and 90th percentile (interdecile range, IDR). Statistical difference between groups of biological replicas were determined with Mann-Whitney U Test (*P<0.05).

hERG channel = details: cited from earlier work
[2] = system: hESC-derived cardiomyocytes (EBs and EHTs); assay: Action potential measurements with sharp microelectrodes (zero current clamp); assay type: cell-based, human
[3] = read-out: Published IC50 (hERG), hERG channel assays

SMILES: Cc1cccc(CCN2CCC(C(=O)c3ccc(NS(C)(=O)=O)cc3)CC2)n1 [E-4031]
- Effect on APD ([2]; 300 nM, P<0.05, n = 4): significant prolongation

SMILES: CCN(CC)CCNC(=O)c1ccc(N)cc1 [Procainamide]
- Threshold concentration at which the compound significantly decreased relaxation velocity [1]: 100000 nM
- Threshold concentration inducing irregular beating patterns (RR-scatter) [1]: 100000 nM
- IC50 (hERG channel; [3]): 139000 nM

SMILES: [Ca+2] [calcium]
- Decrease in force ([1]; hEHT, lowering calcium from 1.8 mM (baseline) to 0.2 mM): 90%

SMILES: C[N+](C)(C)CCOC(N)=O [carbachol]
- Effect on isoprenaline-induced changes in frequency and force ([1]; hEHT, 10 µM, after isoprenaline 100 nM, 0.6 mM calcium): reversed

SMILES: CC(C)NCC(O)c1ccc(O)c(O)c1 (centres unmarked) [isoprenaline]
- Effect on beating frequency ([1]; hEHT, 100 nM, 0.6 mM calcium): positive chronotropic effect
- Effect on force ([1]; hEHT, 100 nM, 0.6 mM calcium): trend towards an increase in force (not significant)

SMILES: COC(=O)C1=C(C)NC(C)=C(C(=O)OCC(C)C)C1c1ccccc1[N+](=O)[O-] (centres unmarked) [nisoldipine]
- Effect on electrical activity and contractions ([2]; 1 µM, all spontaneously beating hESC cultures): completely interrupted

SMILES: NC1=N[C@H](O)[C@H]2[C@H]3O[C@]4(O)O[C@@H]([C@@H](O)[C@@]2(N1)[C@@H]4O)[C@]3(O)CO [tetrodotoxin]
- Effect on AP upstroke velocity [2]: significant decrease
- Effect on APD80 and diastolic interval [2]: significant prolongation

From article PMC3197640, “Human Engineered Heart Tissue as a Versatile Tool in Basic Research and Preclinical Toxicology” (PLoS ONE, 2011)
